Results reported in patent US7084127B2, “C2,5′-disubstituted and N6, C2,5′-trisubstituted adenosine derivatives and their different uses” (Universiteit Leiden, priority 2001, dated 2006).
Where two headings read alike, the source gives them in different places.

Experiments:
[1] = target: T1, A2A receptor in rat striatum (Rattus norvegicus, UniProt P30543); test: Radioligand binding, displacement of [3H]ZM241385 from rat striatal membranes;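 further: displacement assays run in the absence of GTP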
T1 construct: the A2A receptor in rat striatum; from tissue; host or cells: rat striatum
Experimental: (§1) Incubations were carried out for 1 hr at 37° C. and were terminated by rapid filtration over Whatman GF/B filters, using a Brandell cell harvester (Brandell, Gaithersburg, Md.). Tubes were washed three times with 3 ml of buffer. Radioactivity was determined in a Beckman 5500B γ-counter. Nonspecific binding was determined in the presence of 10^−5 M R-PIA.
(§2) All compounds were tested in radioligand binding assays to determine their affinities for the adenosine A1 receptor in rat brain cortex, the A2A receptor in rat striatum and the human A3 receptor as expressed in HEK 293 cells (Table 2). […] AB-MECA, an A3 receptor agonist, was also used. Displacement experiments were performed in the absence of GTP.

[2] = target: T2, human adenosine A1 receptors expressed in CHO cells (Homo sapiens, UniProt P30542); test: cAMP assay A1 (inhibition of forskolin-induced cAMP production); type: cell-based; conditions: for % inhib. A1 of forskolin-induced cAMP: compared to reference full agonist CPA (10 μM) in A1 CHO cells, tested at ±100 × Ki, ±SEM, n = 3, forskolin 10 μM
T2 construct: expressed in transfected cells; host or cells: CHO cells
T2 sequence (P30542 1-326): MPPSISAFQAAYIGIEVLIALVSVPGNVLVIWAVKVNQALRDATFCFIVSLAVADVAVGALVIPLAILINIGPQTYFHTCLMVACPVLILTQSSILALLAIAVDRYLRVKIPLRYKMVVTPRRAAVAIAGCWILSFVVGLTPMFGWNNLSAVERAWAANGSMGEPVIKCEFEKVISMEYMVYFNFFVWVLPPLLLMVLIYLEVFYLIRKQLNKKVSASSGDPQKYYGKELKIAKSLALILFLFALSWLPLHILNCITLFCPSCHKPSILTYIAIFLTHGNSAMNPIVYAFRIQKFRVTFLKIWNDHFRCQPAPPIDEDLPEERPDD
Experimental: cAMP assay A1 and A3 CHO cells expressing either the human adenosine A1 or A3 receptor were grown overnight as a monolayer in 24 wells tissue culture plates (400 μl/well; 2×10^5cells/well). cAMP generation was performed in Dulbecco's Modified Eagles Medium (DMEM)/N-2-hydroxyethylpiperazin-N′-2-ethansulfonic acid (HEPES) buffer (0.60 g HEPES/50 ml DMEM pH 7.4). […] After incubation for 40 minutes at 37° C., 100 μl forskolin (final concentration 10 μM) was added. After 15 minutes at 37° C., the reaction was terminated by removing the medium and adding 200 μL 0.1 M HCl. Wells were stored at −20° C. until assay
The amounts of cAMP were determined after a protocol with cAMP binding protein^28 with the following minor modifications. As a buffer was used 150 mM K2HPO4/10 mM EDTA/0.2% Bovine Serum Albumine (BSA) at pH 7.5. Samples (20 μl+30 μl 0.1 M HCl) were incubated for at least 2.5 hours at 0° C. before filtration over Whatman GF/B filters. Filters were additionally rinsed with 2×2 ml TrisHCl buffer (pH 7.4, 4° C.). Filters were counted in Packard Emulsifier Safe scintillation fluid (3.5 ml) after 24 hours of extraction. […]

[3] = target: T3, adenosine A1 receptor in rat brain cortex (Rattus norvegicus, UniProt P25099); test: Radioligand binding, displacement of [3H]DPCPX from rat cortical membranes; conditions: ligand 10^−5 M
T3 construct: the adenosine A1 receptor in rat brain cortex; from tissue; host or cells: rat brain cortex
T3 sequence (P25099 1-326): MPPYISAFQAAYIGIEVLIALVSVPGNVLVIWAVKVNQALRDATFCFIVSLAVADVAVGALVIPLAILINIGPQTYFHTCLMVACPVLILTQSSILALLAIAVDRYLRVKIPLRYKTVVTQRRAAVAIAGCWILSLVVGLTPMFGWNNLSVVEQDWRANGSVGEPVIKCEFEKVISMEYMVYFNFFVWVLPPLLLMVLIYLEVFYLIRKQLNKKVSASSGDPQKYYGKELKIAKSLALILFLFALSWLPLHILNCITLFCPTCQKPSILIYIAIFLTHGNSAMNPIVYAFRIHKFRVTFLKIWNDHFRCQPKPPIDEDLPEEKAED
Experimental: as §1, §2

[4] = target: T4, human A3 receptor as expressed in HEK 293 cells (Homo sapiens, UniProt P0DMS8); test: Radioligand binding, displacement of [125I]AB MECA, HEK 293 cell membranes
T4 construct: expressed in transfected cells; host or cells: HEK 293 cells (membrane suspension)
T4 sequence (P0DMS8 1-318): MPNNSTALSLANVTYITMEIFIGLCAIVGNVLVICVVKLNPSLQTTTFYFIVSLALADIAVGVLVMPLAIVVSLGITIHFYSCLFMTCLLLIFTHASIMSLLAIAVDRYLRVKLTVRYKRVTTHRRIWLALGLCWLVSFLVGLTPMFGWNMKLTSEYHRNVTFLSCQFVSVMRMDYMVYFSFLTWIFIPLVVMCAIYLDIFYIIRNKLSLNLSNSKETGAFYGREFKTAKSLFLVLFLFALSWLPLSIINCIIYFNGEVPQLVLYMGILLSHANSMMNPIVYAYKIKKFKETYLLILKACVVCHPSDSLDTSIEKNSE
Experimental: as §1, §2

[5] = target: T5, human adenosine A2A receptors expressed in CHO cells (Homo sapiens, UniProt P29274); test: cAMP assay A2A (stimulation of cAMP production); type: cell-based
T5 construct: expressed in transfected cells; host or cells: CHO cells
Experimental: cAMP assay A2A CHO cells expressing human adenosine A2A receptors were grown overnight as a monolayer in 24 wells tissue culture plates (400 μL/well; 2×10^5 cells/well). cAMP generation was performed in Dulbecco's Modified Eagles Medium (DMEM)/N-2-hydroxyethylpiperazin-N′-2-ethanesulfonic acid (HEPES) buffer (0.60 g HEPES/50 mL DMEM pH 7.4). To each well, washed three times with DMEM/HEPES buffer (250 μλ), 100 μl DMEM/HEPES buffer, 100 μl adenosine deaminase (final concentration 5 IU/ml) and 100 μl of a mixture of rolipram and cilostamide (final concentration 50 μM each) were added. After incubation for 40 minutes at 37° C., 100 μl agonist was added. […] After 15 minutes at 37° C., the reaction was terminated by removing the medium and adding 200 μl 0.1 M HCl. Wells were stored at −20° C. until assay.
The amounts of cAMP were determined after a protocol with cAMP binding protein^36 with the following minor modifications. As a buffer was used 150 mM K2HPO4/10 mM EDTA/0.2% Bovine Serum Albumine (BSA) at pH 7.5. Samples (20 μl+30 μl 0.1 M HCl) were incubated for at least 2.5 hours at 0° C. before filtration over Whatman GF/B filters. […] Filters were counted in Packard Emulsifier Safe scintillation fluid (3.5 ml) after 24 hours of extraction.
Data Analysis Apparent Ki and EC50 values were computed from the displacement curves by non-linear regression of the competition curves with the software package Prism (Graph Pad, San Diego, Calif.)

[6] = target: T6, human adenosine A3 receptor (Homo sapiens, UniProt P0DMS8); test: cAMP assay A3 (inhibition of forskolin-induced cAMP production); type: cell-based
T6 construct: expressed in transfected cells; HEK 293 cells according to b145 and b219
T6 sequence (P0DMS8 1-318): T4 sequence (P0DMS8 1-318)
Experimental: cAMP assay A3 CHO cells expressing the human adenosine A3 receptor were grown overnight as a monolayer in 24 wells tissue culture plates (400 μl/well; 2×10^5 cells/well). cAMP generation was performed in Dulbecco's Modified Eagles Medium (DMEM)/N-2-hydroxyethylpiperazin-N′-2-ethansulfonic acid (HEPES) buffer (0.60 g HEPES/50 ml DMEM pH 7.4). […] After incubation for 40 minutes at 37° C., 100 μl forskolin (final concentration 10 μM) was added. After 15 minutes at 37° C., the reaction was terminated by removing the medium and adding 200 μl 0.1 M HCl. Wells were stored at −20° C. until assay. The amounts of cAMP were determined after a protocol with cAMP binding protein^36 with the following minor modifications. As a buffer was used 150 mM K2HPO4/10 mM EDTA/0.2% Bovine Serum Albumine (BSA) at pH 7.5. Samples (20 μl+30 μl 0.1 M HCl) were incubated for at least 2.5 hours at 0° C. before filtration over Whatman GF/B filters. […] Filters were counted in Packard Emulsifier Safe scintillation fluid (3.5 ml) after 24 hours of extraction.
All compounds were also tested in functional assays.
The ability of the compounds to inhibit forskolin-stimulated (10 μM) cAMP production via the adenosine A3 receptor was also studied.
The amounts of cAMP were determined after a protocol with cAMP binding protein^28 with the following minor modifications. As a buffer was used 150 mM K2HPO4/10 mM EDTA/0.2% Bovine Serum Albumine (BSA) at pH 7.5. Samples (20 μl+30 μl 0.1 M HCl) were incubated for at least 2.5 hours at 0° C. before filtration over Whatman GF/B filters. […] Filters were counted in Packard Emulsifier Safe scintillation fluid (3.5 ml) after 24 hours of extraction.

[7] = [3H]ZM241385, rat striatal membranes
[8] = cAMP production, human A2A in CHO cells
[9] = [3H]ZM241385, rat striatal membranes, ligand 10^−5 M
[10] = compared to full agonist CGS 21680

T5 sequence (P29274 whole entry): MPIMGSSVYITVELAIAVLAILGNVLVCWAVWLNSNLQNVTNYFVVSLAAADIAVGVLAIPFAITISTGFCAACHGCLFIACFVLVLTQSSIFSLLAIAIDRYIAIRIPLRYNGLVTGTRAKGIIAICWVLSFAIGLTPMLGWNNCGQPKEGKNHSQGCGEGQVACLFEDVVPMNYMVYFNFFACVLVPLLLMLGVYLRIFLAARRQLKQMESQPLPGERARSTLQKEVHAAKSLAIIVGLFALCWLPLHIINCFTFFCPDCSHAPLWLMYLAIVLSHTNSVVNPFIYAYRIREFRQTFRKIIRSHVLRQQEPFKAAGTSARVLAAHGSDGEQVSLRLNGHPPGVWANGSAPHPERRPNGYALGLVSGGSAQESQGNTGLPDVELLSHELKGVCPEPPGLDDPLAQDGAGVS
T1 sequence (P30543 whole entry): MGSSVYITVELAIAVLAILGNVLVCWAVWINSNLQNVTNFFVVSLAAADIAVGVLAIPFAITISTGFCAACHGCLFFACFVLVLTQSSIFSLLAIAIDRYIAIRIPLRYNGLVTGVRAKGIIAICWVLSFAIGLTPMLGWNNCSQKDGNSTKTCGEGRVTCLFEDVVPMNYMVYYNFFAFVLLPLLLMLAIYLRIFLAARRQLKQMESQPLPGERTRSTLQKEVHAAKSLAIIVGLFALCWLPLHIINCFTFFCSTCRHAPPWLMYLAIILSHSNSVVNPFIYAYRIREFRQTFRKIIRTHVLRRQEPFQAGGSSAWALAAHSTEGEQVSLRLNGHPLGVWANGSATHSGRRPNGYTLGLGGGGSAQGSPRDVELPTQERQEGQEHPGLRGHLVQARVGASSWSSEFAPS

COC[C@H]1O[C@@H](n2cnc3c(NCc4cccc(I)c4)ncnc32)[C@H](O)[C@@H]1O [Compound 68, N^6-(3-iodobenzyl)-5′-O-methyladenosine]
Ki [1, 7]: 373 ± 80 nM | % inhib. A1 of forskolin-induced cAMP [2]: 53 ± 10%

CCOC[C@H]1O[C@@H](n2cnc3c(NCc4cccc(I)c4)nc(Cl)nc32)[C@H](O)[C@@H]1O [Compound 77, N^6-(3-iodobenzyl)-2-Chloro-5′-O-ethyladenosine]
Ki [1, 7]: 848 ± 60 nM | % inhib. A1 of forskolin-induced cAMP [2]: −72 ± 38 %

CC(C)CC=NNc1nc(N)c2ncn([C@@H]3O[C@H](CSC(C)C)[C@@H](O)[C@H]3O)c2n1 [Compound 48, 5′-Deoxy-2-(N′-3-methyl-1-butylidenehydrazino)-5′-isopropylthioadenosine]
% displacement at 10^−5 M A1 [3]: 13.0% | Ki [1, 7]: 1800 ± 230 nM | Ki [4]: 409 ± 118 nM | Emax ([5]; CHO; read-out: Emax (%) A2A): 56 ± 1% | EC50 [5, 8]: 10.4 ± 1 µM | Emax at 30 µM ([6]; read-out: Emax (%) A3): 26%

O[C@@H]1[C@H](O)[C@@H](COC2CC2)O[C@H]1n1cnc2c(NCc3cccc(I)c3)nc(Cl)nc21 [Compound 83, N^6-(3-Iodobenzyl)-2-chloro-5′-O-cyclopropyladenosine]
% displacement at 10^−5 M A2A [1, 9]: 38.7% | % inhib. A1 of forskolin-induced cAMP [2]: −118 ± 41 %

COC[C@H]1O[C@@H](n2cnc3c(NC4CCCC4)nc(Cl)nc32)[C@H](O)[C@@H]1O [Compound 70, N^6-Cyclopentyl-2-chloro-5′-O-methyladenosine]
Ki [1, 7]: 1390 ± 140 nM | % inhib. A1 of forskolin-induced cAMP [2]: 73 ± 4%

COC[C@H]1O[C@@H](n2cnc3c(NCc4cccc(I)c4)nc(Cl)nc32)[C@H](O)[C@@H]1O [Compound 71, N^6-(3-iodobenzyl)-2-Chloro-5′-O-methyladenosine]
Ki [1, 7]: 527 ± 21 nM | % inhib. A1 of forskolin-induced cAMP [2]: 37 ± 15%

OC[C@H]1O[C@@H](n2cnc3c(NC4CCCC4)nc(Cl)nc32)[C@H](O)[C@@H]1O [2-Cl-CPA, reference compound]
% displacement at 10^−5 M A2A [1, 9]: 53.1%

O[C@@H]1[C@H](O)[C@@H](COC2CC2)O[C@H]1n1cnc2c(NC3CCCC3)nc(Cl)nc21 [Compound 82, N^6-cyclopentyl-2-Chloro-5′-O-cyclopropyladenosine]
% displacement at 10^−5 M A2A [1, 9]: 34.6% | % inhib. A1 of forskolin-induced cAMP [2]: 43 ± 9%

COC[C@H]1O[C@@H](n2cnc3c(NC4CCCC4)ncnc32)[C@H](O)[C@@H]1O [Compound 67, N^6-cyclopentyl-5′-O-methyladenosine]
Ki [1, 7]: 366 ± 109 nM | % inhib. A1 of forskolin-induced cAMP [2]: 74 ± 4%

CCSC[C@H]1O[C@@H](n2cnc3c(N)nc(NN=CCC(C)C)nc32)[C@H](O)[C@@H]1O [Compound 46, 5′-Deoxy-2-(N′-3-methyl-1-butylidenehydrazino)-5′-ethylthioadenosine]
% displacement at 10^−5 M A1 [3]: 21.2% | Ki [1, 7]: 500 ± 40 nM | Ki [4]: 814 ± 132 nM | Emax ([5]; CHO; read-out: Emax (%) A2A): 101 ± 4% | EC50 [5, 8]: 7.5 ± 0.3 µM | agonist behaviour, cAMP production via adenosine A2A receptor [5, 10]: full agonists | Emax at 100 µM ([6]; read-out: Emax (%) A3): 7%

CNC(=O)[C@H]1O[C@@H](n2cnc3c(NCc4cccc(I)c4)nc(Cl)nc32)[C@H](O)[C@@H]1O [Cl-IB-MECA, reference compound]
% displacement at 10^−5 M A2A [1, 9]: 23.5%

5′-Deoxy-2-iodo-5′-methylthioadenosine [Compound 33]
Ki [1, 7]: 3900 ± 580 nM

CCOC[C@H]1O[C@@H](n2cnc3c(NCc4cccc(I)c4)ncnc32)[C@H](O)[C@@H]1O [Compound 74, N^6-(3-Iodobenzyl)-5′-O-Ethyladenosine]
% displacement at 10^−5 M A2A [1, 9]: 40.4% | % inhib. A1 of forskolin-induced cAMP [2]: 6 ± 21%

CC(C)CC=NNc1nc(N)c2ncn([C@@H]3O[C@H](CO)[C@@H](O)[C@H]3O)c2n1 [Compound 3, 2-(N′-3-Methyl-1-butylidenehydrazino)adenosine]
% displacement at 10^−5 M A1 [3]: 18.9% | Ki [1, 7]: 20 ± 7 nM | Ki [4]: 38.3 ± 3.3 nM | Emax ([5]; CHO; read-out: Emax (%) A2A): 92 ± 2% | EC50 [5, 8]: 1.1 ± 0.2 µM | agonist behaviour, cAMP production via adenosine A2A receptor [5, 10]: full agonists | agonist behaviour, inhibition of forskolin-induced cAMP via adenosine A3 receptor ([6]; compared to reference full agonist Cl-IB-MECA): partial agonist | Emax at 3 µM ([6]; read-out: Emax (%) A3): 24%

CCOC[C@H]1O[C@@H](n2cnc3c(NC4CCCC4)nc(Cl)nc32)[C@H](O)[C@@H]1O [Compound 76, N^6-cyclopentyl-2-Chloro-5′-O-ethyladenosine]
Ki [1, 7]: 1730 ± 700 nM | % inhib. A1 of forskolin-induced cAMP [2]: 62 ± 6%

Nc1nc(I)nc2c1ncn2[C@@H]1O[C@H](CO)[C@@H](O)[C@H]1O [Compound 1, 2-Iodoadenosine]
% displacement at 10^−5 M A1 [3]: 36.1% | Emax ([5]; CHO, read-out: Emax (%) A2A): 112 ± 7% | EC50 [5, 8]: 5.4 ± 0.7 µM

OC[C@H]1O[C@@H](n2cnc3c(NC4CCCC4)ncnc32)[C@H](O)[C@@H]1O [CPA, reference compound]
% displacement at 10^−5 M A2A [1]: 45.9% | Ki ([4]; [125I]AB MECA, human A3 receptor in HEK 293 cells, read-out: Ki A3): 281 ± 56 nM | inhibition at 10 µM ([2]; CHO, read-out: % inhib. A1 of forskolin-induced cAMP): 69 ± 3%

CSC[C@H]1O[C@@H](n2cnc3c(N)nc(NN=CCC(C)C)nc32)[C@H](O)[C@@H]1O [Compound 45, 5′-Deoxy-2-(N′-3-methyl-1-butylidenehydrazino)-5′-methylthioadenosine]
% displacement at 10^−5 M A1 [3]: 18.9% | Ki [1, 7]: 220 ± 20 nM | Ki [4]: 253 ± 36 nM | Emax ([5]; CHO; read-out: Emax (%) A2A): 44 ± 4% | EC50 [5, 8]: 5 ± 0.6 µM | Emax at 30 µM ([6]; read-out: Emax (%) A3): 41%

O[C@@H]1[C@H](O)[C@@H](COC2CC2)O[C@H]1n1cnc2c(NC3CCCC3)ncnc21 [Compound 79, N^6-Cyclopentyl-5′-O-cyclopropyladenosine]
% displacement at 10^−5 M A2A [1, 9]: 24.3% | % inhib. A1 of forskolin-induced cAMP [2]: 62 ± 4%

CCOC[C@H]1O[C@@H](n2cnc3c(NC4CCCC4)ncnc32)[C@H](O)[C@@H]1O [Compound 73, N^6-cyclopentyl-5′-O-ethyladenosine]
% displacement at 10^−5 M A2A [1, 9]: 33.9% | % inhib. A1 of forskolin-induced cAMP [2]: 69 ± 6%

O[C@@H]1[C@H](O)[C@@H](COC2CC2)O[C@H]1n1cnc2c(NCc3cccc(I)c3)ncnc21 [Compound 80, N^6-(3-Iodobenzyl)-5′-O-cyclopropyladenosine]
% displacement at 10^−5 M A2A [1, 9]: 43.7% | % inhib. A1 of forskolin-induced cAMP [2]: −104 ± 22 %

CCCSC[C@H]1O[C@@H](n2cnc3c(N)nc(NN=CCC(C)C)nc32)[C@H](O)[C@@H]1O [Compound 47, 5′-Deoxy-2-(N′-3-methyl-1-butylidenehydrazino)-5′-propylthioadenosine]
% displacement at 10^−5 M A1 [3]: 22.0% | Ki [1, 7]: 1500 ± 280 nM | Ki [4]: 697 ± 31 nM | Emax ([5]; CHO; read-out: Emax (%) A2A): 126 ± 3% | EC50 [5, 8]: 12.9 ± 0.9 µM | agonist behaviour, cAMP production via adenosine A2A receptor [5, 10]: full agonists | Emax at 100 µM ([6]; read-out: Emax (%) A3): 16%

N^6-Cyclopentyl-5′-O-Cyclopropyladenosine [Compound 78]
% inhib. A1 of forskolin-induced cAMP [2]: 61 ± 2%

CCCCC#Cc1nc(N)c2ncn([C@@H]3O[C@H](CSC)[C@@H](O)[C@H]3O)c2n1 [Compound 37]
Ki [1, 7]: 60 ± 20 nM | EC50 [5, 8]: 0.7 ± 0.1 µM | Emax (%) A2A ([5]; compared to Emax of CGS 21680 (10 μM) in A2A CHO cells, ±SEM, n = 3; n.a. = not active, no cAMP produced at 30 μM (35) or 100 μM): 45 ± 6%
